In patent US9963703B2, “Compositions and methods for treating pancreatic cancer” (Autotelic LLC, priority 2016, dated 2018):

Assays:
WiDr colon cancer cells = assay: Cellular proliferation of WiDr colon cancer cells in vitro; assay type: cell-based; conditions: treatment on day 1 for 5 h only
Excerpt: (§1) The aim of the study was to determine the effect of AP12009 (trabedersen) treatment in combination with 5-Fluorouracil (5-FU) on TGFβ2 secretion and on cellular proliferation of HUP-T3 pancreatic cancer cells and WiDr colon cancer cells in vitro.

[1] = test system: HUP-T3 pancreatic cancer cells; assay: Cellular proliferation of HUP-T3 pancreatic cancer cells in vitro; conditions: HUP-T3; treatment on day 1 for 5 h; measured after 7 days
Excerpt: as §1

TGFβ2 [2] = assay: TGFβ2 secretion/expression in HUP-T3 pancreatic cancer cells; assay type: cell-based
Excerpt: as §1

TGFβ2 [3] = assay: TGFβ2 secretion/expression in WiDr colon cancer cells; assay type: cell-based
Excerpt: as §1

## O=c1[nH]cc(F)c(=O)[nH]1 [5-FU, 5-Fluorouracil, reference compound]
WiDr colon cancer cells
  5-FU concentrations that concentration-dependently reduced cell proliferation: > 38 µM
[1]
  5-FU concentrations that dose-dependently reduced cell proliferation: > 10 µM
TGFβ2 [2]
  5-FU concentrations at which TGFβ2 was suppressed: > 75 µM
TGFβ2 [3]
  5-FU concentrations at which TGFβ2 was suppressed: > 75 µM
